From patent US5599812A, “Tricyclic pyrrolopyrazine 5-HT3 -active compounds” (Adir Et Compagnie, priority 1993, dated 1997)

Legend:
5-HT3 receptors [1] = target: T1, 5-HT3 receptors (Mus musculus, UniProt P23979); test: Accumulation of 14C-guanidinium in NG 108-15 cells; conditions: for multiplication of the intracellular accumulation of 14C-guanidinium: fold, agonist at 10 μM-0.1 mM
T1 sequence (P23979 24-489): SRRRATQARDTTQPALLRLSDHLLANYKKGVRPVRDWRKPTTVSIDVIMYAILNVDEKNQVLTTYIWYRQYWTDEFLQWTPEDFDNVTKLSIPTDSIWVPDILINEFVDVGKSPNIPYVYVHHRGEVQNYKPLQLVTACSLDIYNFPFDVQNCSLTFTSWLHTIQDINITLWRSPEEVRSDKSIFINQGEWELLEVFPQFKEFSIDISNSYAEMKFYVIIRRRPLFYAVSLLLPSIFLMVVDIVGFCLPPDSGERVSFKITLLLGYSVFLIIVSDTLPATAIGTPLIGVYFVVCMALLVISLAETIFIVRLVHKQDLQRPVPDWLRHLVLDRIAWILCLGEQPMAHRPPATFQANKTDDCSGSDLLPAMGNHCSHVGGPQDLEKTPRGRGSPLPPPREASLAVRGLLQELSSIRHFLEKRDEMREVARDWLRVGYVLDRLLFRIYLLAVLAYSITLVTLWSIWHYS
Description: The accumulation of ^14 -C-guanidinium in NG 108-15 cells is measured and makes it possible to study the interaction of the tested compounds with 5-HT3 receptors, knowing that this accumulation is stimulated by agonists of 5-HT3 receptors.
The NG 108-15 hybrid clone (neuroblastoma-glioma) is cultured under standard conditions (Dulbecco's medium to which 40 mM of sodium bicarbonate, 1.8 mM of L-glutamine, 0.1 mM of hypoxanthine, 1 μM of aminopterin, 16 μM of thymine and 10% of fetal calf serum are added) at 37° C. in an atmosphere enriched in CO2 (7%). At confluence (.congruent.3.5×10^5 cells in dishes with diameters of 35 mm), the culture medium is sucked off and the cell lawn is rapidly washed with 3 cm^3 of a HEPES (20 mM) buffer containing 145 mM of NaCl, 5.4 mM of KCl, 1.8 mM of CaCl2, 1.0 mM of MgCl2 and 20 mM of glucose, pH 7.4. […] The incubation lasts 10 minutes at 37° C. The medium is then sucked off and the cells are rapidly washed twice with 3 cm^3 of the washing buffer in which the NaCl has been fully replaced by an equimolar concentration of choline chloride. Finally, the cell lawn is taken up in 0.5 cm^3 of 0.4N sodium hydroxide solution and the accumulated radioactivity is counted by spectrometry in liquid medium (Aquasol).

5-HT3 receptors [2] = target: T2, 5-HT3 receptors (Rattus norvegicus, UniProt P35563); test: Bradycardic Bezold-Jarisch reflex in anesthetized rats; assay type: in vivo, Sprague-Dawley; conditions: for fall in the cardiac rhythm / duration of the fall in the cardiac rhythm: i.v. injection of 30 μg; for duration of the fall in the cardiac rhythm: approximately; for dose completely preventing the agonist-induced bradycardia: prior i.v. administration, against 30 μg i.v. agonist
T2 construct: bradycardia induced by stimulation of 5-HT3 receptors on vagal afferent neurons; from tissue; host or cells: whole anesthetized rat; receptors on vagal afferent neurons
T2 sequence (P35563 24-483): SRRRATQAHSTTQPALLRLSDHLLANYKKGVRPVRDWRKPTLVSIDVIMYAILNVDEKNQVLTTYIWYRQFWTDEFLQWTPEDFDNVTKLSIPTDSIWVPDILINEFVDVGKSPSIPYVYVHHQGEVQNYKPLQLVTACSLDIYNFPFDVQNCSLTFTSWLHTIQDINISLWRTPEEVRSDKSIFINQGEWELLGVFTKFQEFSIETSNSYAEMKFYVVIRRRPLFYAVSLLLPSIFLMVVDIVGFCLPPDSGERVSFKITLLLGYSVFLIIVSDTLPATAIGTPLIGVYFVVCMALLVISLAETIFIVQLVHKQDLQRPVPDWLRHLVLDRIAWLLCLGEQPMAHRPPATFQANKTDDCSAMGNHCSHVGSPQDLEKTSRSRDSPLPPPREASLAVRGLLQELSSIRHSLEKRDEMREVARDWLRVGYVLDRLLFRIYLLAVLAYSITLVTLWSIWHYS
Description: Bradycardia (Bezold-Jarisch reflex) is induced by the intravenous injection of 5-HT3 serotonin in rats anesthetized with urethane.
This response consists of a violent but transitory bradycardia induced by stimulation of 5-HT3 receptors on vagal afferent neurons.
The animal (adult male rat, Sprague-Dawley strain, 250-300 g) is first of all anesthetized with urethane (1.4 g/kg i.p.) and then a tracheotomy is performed in order to implant a tracheal cannula. A catheter (0.3 mm)is introduced into the abdominal aorta via the femoral artery for the continuous recording of the arterial pressure and the cardiac rhythm.
Bradycardia is expressed as percentage of lowering (maximum) of the base rhythm, before any treatment (means±M.S.D.).

[3] = Solubility in DMSO (NMR remark); assay type: physicochemical; conditions: d6-DMSO, tetrahydrochloride
[4] = doses (I.V.) 30, 60 and 120 μg·Kg^-1 (one value given)

**Q.** Which “multiplication of the intracellular accumulation of 14C-guanidinium” value (5-HT3 receptors [1]) does the source give for `Cc1[nH]c2ccc(O)cc2c1CCN` [2-methyl-5-hydroxytryptamine] here?
**A.** 5

**Q.** What about the “fall in the cardiac rhythm” value (5-HT3 receptors [2]) of the same compound?
**A.** -80%

**Q.** What about the “duration of the fall in the cardiac rhythm” value (5-HT3 receptors [2]) of the same compound?
**A.** 4 to 5 s

**Q.** For `c1ccc(CN2CCN(c3nc4ccccc4n4cccc34)CC2)cc1` [Example 1, 4-(4-benzylpiperazino)pyrrolo[1,2-a]quinoxaline], which EC50 (5-HT3 receptors [1]) is on record?
**A.** ~100 nM

**Q.** For `Clc1ccc2c(c1)nc(N1CCN(Cc3ccccc3)CC1)c1cccn12` [Example 3, 4-(4-benzylpiperazino)-7-chloropyrrolo[1,2-a]quinoxaline], which EC50 (5-HT3 receptors [1]) is on record?
**A.** 50 nM

**Q.** And the “Agonist Effect, Bradycardia %” value (5-HT3 receptors [2]; [4])?
**A.** 0%

**Q.** With `Fc1ccc(CN2CCN(c3nc4cc(Cl)ccc4n4cccc34)CC2)cc1` [Example 4, 7-CHLORO-4-[4-(4-FLUOROBENZYL)PIPERAZINO]PYRROLO[1,2-a]QUINOXALINE] as the compound, how does the EC50 (5-HT3 receptors [1]) read?
**A.** 100 nM

**Q.** And the “Antagonist effect at (concentration)” value (5-HT3 receptors [1]; antagonist effect, 14C-guanidinium accumulation, NG 108-15 cells)?
**A.** 3 nM

**Q.** What about the “Agonist Effect, Bradycardia %” value (5-HT3 receptors [2]; [4]) of the same compound?
**A.** 0%

**Q.** Which EC50 (5-HT3 receptors [1]) does the source give for `c1ccc(CN2CCN(c3nc4cccnc4n4cccc34)CC2)cc1` [Example 11, 6-(4-benzylpiperazino)pyrido[3,2-e]pyrrolo [1,2-a]pyrazine] here?
**A.** 30 nM

**Q.** What about the “Antagonist effect at (dose)” value (5-HT3 receptors [2]; I.V., rat, Bezold-Jarisch reflex) of the same compound?
**A.** 120 µg/kg

**Q.** And the “Agonist Effect, Bradycardia %” value (5-HT3 receptors [2]; dose (I.V.) 120 μg·Kg^-1, n = 7, maximum lowering of base rhythm, means ± M.S.D.)?
**A.** 59.4 ± 7.2%

**Q.** With `c1ccc(CN2CCN(c3ccc4nc(N5CCN(Cc6ccccc6)CC5)c5cccn5c4n3)CC2)cc1` [Example 93, 2,6-bis(4-benzylpiperazino)pyrido[3,2-e]pyrrolo[1,2-a]pyrazine] as the compound, how does the “solubility in DMSO” value [3] read?
**A.** insoluble

**Q.** With `Cc1nccn1CC1CCc2c(c3ccccc3n2C)C1=O` (stereo not shown) [ondansetron] as the compound, how does the “dose completely preventing the agonist-induced bradycardia” value (5-HT3 receptors [2]) read?
**A.** 1 µg/kg

**Q.** Which results are given for `NCCc1c[nH]c2ccc(O)cc12` [serotonin]?
**A.** multiplication of the intracellular accumulation of 14C-guanidinium (5-HT3 receptors [1]): 5; Agonist Effect, Bradycardia % (5-HT3 receptors [2]; dose (I.V.) 30 μg·Kg^-1, n = 21, maximum lowering of base rhythm, means ± M.S.D.): 68.0 ± 2.3%; fall in the cardiac rhythm (5-HT3 receptors [2]): -80%; duration of the fall in the cardiac rhythm (5-HT3 receptors [2]): 4 to 5 s

**Q.** With `COc1cc(N)c(Cl)cc1C(=O)NC1CN2CCC1CC2` (stereo not shown) [zacopride] as the compound, how does the “dose completely preventing the agonist-induced bradycardia” value (5-HT3 receptors [2]) read?
**A.** 1 µg/kg
